Data taken from patent US11365185B2, “Lysophosphatidic acid receptor 1 (LPAR1) inhibitor compounds” (Eli Lilly and Company, priority 2017, dated 2022).
Counter-ions that a name gives are not always drawn.

Columns and labels:
LPAR1 [1] = target: T1, LPAR1 (Homo sapiens (Human), UniProt Q92633); assay: LPAR1 Calcium Flux Assay; format: cell-based; settings: U937 cells overexpressing human LPAR1, LPA-stimulated calcium, FLIPR
Description: LPAR1 Calcium Flux Assays
(§1) A cDNA encoding the human LPAR1 receptor is synthesized and cloned into pDNA3 expression plasmid. The plasmid is transfected in U937 cells using Lipofectamine 2000 (Invitrogen Corp., USA). Clones stably expressing human LPAR1 are selected using puromycin and identified as cells that show Ca-influx in response to LPA.
U937 cells overexpressing human LPAR1 are seeded at 100,000 cells per well in a 96-well fibronectin (10 ug/ml) coated plate in 60 μl of assay buffer (HBSS containing 20 mM HEPES and 0.2% BSA) and then incubated for 60 minutes. Then 50 μl of a calcium indicator dye (Fluo-4 NW, Molecular Probes) are added to each well and incubation continued for 30 minutes at 37° C. and then 30 minutes at room temperature. 50 μl of test compounds in 4% DMSO are added to the cells and incubation continued at room temperature for 40 minutes. Cells are the stimulated by the addition of 50 μl of 128 nM LPA and intracellular calcium is measured using the FLIPR TETRA (Molecular Devices). IC50 values are determined using “Genedata Screener” analysis tool.
Target sequence in this assay (Q92633 whole entry): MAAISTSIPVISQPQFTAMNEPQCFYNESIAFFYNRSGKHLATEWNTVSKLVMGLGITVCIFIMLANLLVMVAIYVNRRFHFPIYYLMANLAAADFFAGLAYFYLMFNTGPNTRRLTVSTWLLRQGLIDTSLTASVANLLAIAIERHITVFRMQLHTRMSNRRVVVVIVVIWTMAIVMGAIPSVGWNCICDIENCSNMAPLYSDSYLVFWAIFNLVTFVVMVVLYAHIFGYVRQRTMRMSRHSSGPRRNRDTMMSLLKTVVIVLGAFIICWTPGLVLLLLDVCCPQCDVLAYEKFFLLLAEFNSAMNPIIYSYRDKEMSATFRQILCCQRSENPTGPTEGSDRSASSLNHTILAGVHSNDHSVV

human LPAR3 = human LPAR3 (Homo sapiens (Human), UniProt Q9UBY5); assay: LPAR3 Calcium Flux Assay; format: cell-based; settings: U2OS cells overexpressing human LPAR3, LPA-stimulated calcium, FLIPR
Chain of human LPAR3 (Q9UBY5 whole entry): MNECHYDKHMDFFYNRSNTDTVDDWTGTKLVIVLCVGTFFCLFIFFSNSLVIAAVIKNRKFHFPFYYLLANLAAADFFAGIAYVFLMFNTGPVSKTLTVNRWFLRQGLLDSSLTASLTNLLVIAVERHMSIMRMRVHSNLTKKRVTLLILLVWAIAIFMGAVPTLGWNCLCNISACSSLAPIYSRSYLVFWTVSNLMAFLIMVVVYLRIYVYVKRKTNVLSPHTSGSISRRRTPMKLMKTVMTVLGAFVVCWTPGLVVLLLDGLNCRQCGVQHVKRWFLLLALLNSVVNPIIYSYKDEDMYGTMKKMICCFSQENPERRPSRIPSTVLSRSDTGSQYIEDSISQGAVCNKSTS
Description: LPAR3 Calcium Flux Assays
as §1, with “LPAR3” for “LPAR1”, “U2OS” for “U937”, “neomycin” for “puromycin”
U2OS cells overexpressing human LPAR3 are seeded at 20,000-40,000 cells per well in a 96-well poly-D-lysine coated plate one day before the assay. Prior to the assay, the cells are washed once with assay buffer (HBSS containing 20 mM HEPES and 0.2% BSA) and then incubated in 50 μl of assay buffer for 60 minutes. Then 50 μl of a calcium indicator dye (Fluo-4 NW, Molecular Probes) are added to each well and incubation is continued for 30 minutes at 37° C. and then 30 minutes at room temperature. 50 μl of test compounds in 4% DMSO are added to the cells and incubation continued at room temperature for 40 minutes. Cells are stimulated by the addition of 50 μl of 128 nM LPA and intracellular calcium is measured using the FLIPR TETRA (Molecular Devices). IC50 values are determined using “Genedata Screener” analysis tool.

[2] = tested on: Human hepatic stellate cell line LX-2; assay: Calcium Influx of Human Hepatic Stellate Cells (LX-2); format: cell-based; settings: LX-2 cells, LPA-stimulated calcium influx
Description: Calcium Influx of Human Hepatic Stellate Cells (LX-2)
Human hepatic stellate cell line LX-2 is purchased from EMD Millpore. LX-2 cells are seeded at 20,000-40,000 cells per well in a 96-well poly-D-lysine coated plate one day before the assay. Prior to the assay, the cells are washed once with assay buffer (HBSS containing 20 mM HEPES and 0.2% BSA) and then incubated in 50 μl of assay buffer for 60 minutes. Then 50 μl of a calcium indicator dye (Fluo-4 NW, Molecular Probes) are added to each well and incubation is continued for 30 minutes at 37° C. and then 30 minutes at room temperature. 50 μl of test compounds in 4% DMSO are added to the cells and incubation is continued at room temperature for 40 minutes. Cells are stimulated by the addition of 50 μl of 128 nM LPA and intracellular calcium is measured using the FLIPR TETRA (Molecular Devices). IC50 values are determined using “Genedata Screener” analysis tool.

LPAR1 [3] = target: T1, LPAR1; assay: LPAR1 Membrane Binding Assay; settings: membrane containing LPAR1, radio labeled ligand, SPA
Description: LPAR1 Membrane Binding Assay
The ability of a compound to inhibit binding of a ligand (1-(4′-(4-(((benzyloxy)carbonyl)amino)-3-methylisoxazol-5-yl)-[1,1′-biphenyl]-4-yl)cyclopropane-1-carboxylic acid) to LPAR1 is assessed via a membrane binding assay. Membrane containing LPAR1 was purchased from Cerep (Cat. No. 290312RB). Prior to the assay, membrane is thawed and homogenized for 15 seconds. 50 μl of test compounds and 50 μl of radio labeled ligand are added to the 96-well plates and then 50 of μl membrane (50-400 ug/ml) are added. Next, 50 μl of SPA PVT WGA beads are added (1-5 mg/ml) and the plates are sealed and incubated at room temperate for 5 minutes. Radio activity is measured by Beta Counter and IC50 values are determined using “Genedata Screener” analysis tool.
Target sequence in this assay (Q92633 whole entry, species assumed): as the sequence (Q92633 whole entry) above

| Compound | IC50 (LPAR1 [1]) [nM] | IC50 (human LPAR3) [nM] | IC50 [2] [nM] | Ki (LPAR1 [3]) [nM] |
| --- | --- | --- | --- | --- |
| Cn1ncc(-c2ccc(-c3ccc(C4(C(=O)O)CC4)cc3)cn2)c1Nc1cncc(OC(C)(C)C)n1 [Example 1, 1-[4-[6-[5-[(6-tert-butoxypyrazin-2-yl)amino]-1-methyl-pyrazol-4-yl]-3-pyridyl]phenyl]cyclopropanecarboxylic Acid] | 74.4 | 1330 | 37.2 |  |
| Cn1ncc(-c2ccc(-c3ccc(C4(C(=O)O)CC4)cc3)cn2)c1Nc1cncc(OC2CCC2)n1 [Example 2, 1-[4-[6-[5-[[6-(cyclobutoxy)pyrazin-2-yl]amino]-1-methyl-pyrazol-4-yl]-3-pyridyl]phenyl]cyclopropanecarboxylic Acid] | 17.2 | 327 | 9.22 |  |
| Cn1ncc(-c2ncc(-c3ccc(C4(C(=O)O)CC4)cc3)cc2F)c1Nc1cncc(C(C)(C)F)n1 [Example 4, 1-[4-[5-fluoro-6-[5-[[6-(1-fluoro-1-methyl-ethyl)pyrazin-2-yl]amino]-1-methyl-pyrazol-4-yl]-3-pyridyl]phenyl]cyclopropanecarboxylic Acid Hydrochloride] | 16.7 | 1590 | 8.67 | 80.5 |
| Cn1ncc(-c2ccc(-c3ccc(C4(C(=O)O)CC4)cc3)cn2)c1Nc1cncc(OC2CC(F)(F)C2)n1 [Example 5, 1-[4-[6-[5-[[6-(3,3-difluorocyclobutoxy)pyrazin-2-yl]amino]-1-methyl-pyrazol-4-yl]-3-pyridyl]phenyl]cyclopropanecarboxylic Acid] | 26.9 | 49.6 | 17.1 | 51.4 |
| COC(C)(C)c1cncc(Nc2c(-c3ccc(-c4ccc(C5(C(=O)O)CC5)cc4)cn3)cnn2C)n1 [Example 6, 1-[4-[6-[5-[[6-(1-methoxy-1-methyl-ethyl)pyrazin-2-yl]amino]-1-methyl-pyrazol-4-yl]-3-pyridyl]phenyl]cyclopropanecarboxylic Acid; Hydrochloride] | 122 | 5270 | 60.5 | 115 |
| CC(C)Oc1cncc(Nc2c(-c3ncc(-c4ccc(C5(C(=O)O)CC5)cc4)cc3F)cnn2C)n1 [Example 11, 1-[4-[5-fluoro-6-[5-[(6-isopropoxypyrazin-2-yl)amino]-1-methyl-pyrazol-4-yl]-3-pyridyl]phenyl]cyclopropanecarboxylic Acid; Hydrochloride] | 11.1 | 495 | 10 | 34.6 |
| Cn1ncc(-c2ccc(-c3ccc(C4(C(=O)O)CC4)cc3)cn2)c1Nc1cncc(C(C)(C)F)n1 [Example 13, 1-[4-[6-[5-[[6-(1-fluoro-1-methyl-ethyl)pyrazin-2-yl]amino]-1-methyl-pyrazol-4-yl]-3-pyridyl]phenyl]cyclopropanecarboxylic Acid; Hydrochloride] | 44 | 804 | 10.5 | 28 |
| COCc1cc(C2(C(=O)O)CC2)ccc1-c1ccc(-c2cnn(C)c2Nc2cncc(C(C)C)n2)nc1 [Example 14, 1-[4-[6-[5-[(6-isopropylpyrazin-2-yl)amino]-1-methyl-pyrazol-4-yl]-3-pyridyl]-3-(methoxymethyl)phenyl]cyclopropanecarboxylic Acid; Hydrochloride] | 45.8 | > 10000 | 13.2 |  |
| CC(C)c1cncc(Nc2c(-c3ccc(-c4ccc(C5(C(=O)O)CC5)cc4CC#N)cn3)cnn2C)n1 [Example 15, 1-[3-(cyanomethyl)-4-[6-[5-[(6-isopropylpyrazin-2-yl)amino]-1-methyl-pyrazol-4-yl]-3-pyridyl]phenyl]cyclopropanecarboxylic Acid; Hydrochloride] | 42.9 | > 10000 | 19.4 | 94.8 |
| CC(C)c1cncc(Nc2c(-c3ccc(-c4ccc(C5(C(=O)O)CC5)cc4C#N)cn3)cnn2C)n1 [Example 16, 1-[3-cyano-4-[6-[5-[(6-isopropylpyrazin-2-yl)amino]-1-methyl-pyrazol-4-yl]-3-pyridyl]phenyl]cyclopropanecarboxylic Acid; Hydrochloride] | 29.3 | 4620 | 18.2 | 53.8 |
| CC(C)c1cncc(Nc2c(-c3cnc(-c4ccc(C5(C(=O)O)CC5)cc4)cn3)cnn2C)n1 [Example 19, 1-[4-[5-[5-[(6-isopropylpyrazin-2-yl)amino]-1-methyl-pyrazol-4-yl]pyrazin-2-yl]phenyl]cyclopropanecarboxylic Acid; Hydrochloride] | 88.1 | 2400 | 16.3 |  |

Second part, the compound after the results:

| IC50 (LPAR1 [1]) [nM] | IC50 (human LPAR3) [nM] | IC50 [2] [nM] | Ki (LPAR1 [3]) [nM] | Compound |
| --- | --- | --- | --- | --- |
| 8.61 | 2480 | 3.8 | 44.2 | Cn1ncc(-c2ncc(-c3ccc(C4(C(=O)O)CC4)cc3)cc2F)c1Nc1cncc(OC2CC2)n1 [Example 3, 1-[4-[6-[5-[[6-(cyclopropoxy)pyrazin-2-yl]amino]-1-methyl-pyrazol-4-yl]-5-fluoro-3-pyridyl]phenyl]cyclopropanecarboxylic Acid; Hydrochloride] |
| 27.1 | 1050 | 16.3 | 72.3 | Cc1cc(-c2ccc(-c3cnn(C)c3Nc3cncc(OC(C)C)n3)nc2)ccc1C1(C(=O)O)CC1 [Example 7, 1-[4-[6-[5-[(6-isopropoxypyrazin-2-yl)amino]-1-methyl-pyrazol-4-yl]-3-pyridyl]-2-methyl-phenyl]cyclopropanecarboxylic Acid; Hydrochloride] |
|  |  | 7.13 |  | Cn1ncc(-c2ccc(-c3ccc(C4(C(=O)O)CC4)c(C(F)(F)F)c3)cn2)c1Nc1cncc(OC2CC2)n1 [Example 8, 1-[4-[6-[5-[[6-(cyclopropoxy)pyrazin-2-yl]amino]-1-methyl-pyrazol-4-yl]-3-pyridyl]-2-(trifluoromethyl)phenyl]cyclopropanecarboxylic Acid; Hydrochloride] |
| 17.9 | > 10000 | 10.5 |  | Cn1ncc(-c2ccc(-c3ccc(C4(C(=O)O)CC4)c(C#N)c3)cn2)c1Nc1cncc(OC2CC2)n1 [Example 9, 1-[2-cyano-4-[6-[5-[[6-(cyclopropoxy)pyrazin-2-yl]amino]-1-methyl-pyrazol-4-yl]-3-pyridyl]phenyl]cyclopropanecarboxylic Acid; Hydrochloride] |
| 9.86 | 4420 | 5.41 | 12.5 | Cn1ncc(-c2ccc(-c3ccc(C4(C(=O)O)CC4)cc3)cn2)c1Nc1cncc(OC2CC2)n1 [Example 10, 1-[4-[6-[5-[[6-(cyclopropoxy)pyrazin-2-yl]amino]-1-methyl-pyrazol-4-yl]-3-pyridyl]phenyl]cyclopropanecarboxylic Acid] |
| 24.4 | 4280 | 14.4 | 40.9 | Cn1ncc(-c2ccc(-c3ccc(C4(C(=O)O)CC4)cc3)cn2)c1Nc1cncc(C(C)(F)F)n1 [Example 12, 1-[4-[6-[5-[[6-(1,1-difluoroethyl)pyrazin-2-yl]amino]-1-methyl-pyrazol-4-yl]-3-pyridyl]phenyl]cyclopropanecarboxylic Acid; Hydrochloride] |
